The values below come from patent US11053218B2, “3-(1-oxoisoindolin-2-yl)piperidine-2,6-dione derivatives and uses thereof” (Novartis AG, priority 2017, dated 2021).

Read-outs that look alike come from different tables or passages of the source.

Common to all, as to type: cell-based
Experiment [1] deals with IKZF1 (Homo sapiens, UniProt Q13422+Q96SW2). In words: Prolabel quantification of IKZF1 protein levels in 293GT cells. As to conditions: Prolabel assay, read-out: IKZF1 EC50.
Experiment [2] has as its target GSPT1 (Homo sapiens, UniProt P15170+Q96SW2). The experiment in a line: Prolabel quantification of GSPT1 protein levels in 293GT cells. The conditions noted are these: Prolabel assay, read-out: GSPT1 EC50. The protocol: The Prolabel system from DiscoverX was used to develop high-throughput and quantitative assays to measure changes in IKZF1, IKZF2 and GSPT1 protein levels in response to compounds. The prolabel tag was derived from the alpha fragment of beta galactosidase and has the following protein sequence: mssnslavvlqrrdwenpgvtqlnrlaahppfaswrnseeartdrpsqqlrslnge. The complementary fragment of beta-galactosidase (from DiscoverX), is added to the prolabel tag to form an active beta galactosidase enzyme whose activity can be precisely measured. In this way, the levels of a fusion protein with the prolabel tag can be quantified in cell lysates.
Lentiviral vectors, based on the Invitrogen pLenti6.2/V5 DEST backbone, were constructed that placed the prolabel tag upstream of IKZF1, IKZF2 or GSPT1 and expressed the fusion protein from a CMV promoter.
To ensure moderate and consistent expression of the prolabel fusion proteins across all cells in the population, stable cell lines were constructed from cells expressing a single copy of the construct. Lentivirus packaged with the constructs was made using the Virapower kit from Invitrogen.
The levels of prolabel tagged fusion proteins in compound treated cell lines were measured as follows:
Day 1, Cells were diluted to 1.0×10^6 cells/ml in normal growth medium. 17.5 μL of cells were plated in each well of a solid white 384 well plate. Plates were incubated overnight in a 37° C. tissue culture incubator.
Day 2, Serial dilutions of compounds were made in 384 well plates from 10 mM stocks. 15 μL of DMSO was added to each well of a 384 well plate. In the first column 15 μL of stock compound was added. The solution was mixed and 15 μL was transferred to the next column. This was repeated until 20 two-fold dilutions were prepared. 2.5 μL of diluted compounds were transferred into 60 μL of cell culture medium in another 384 well plate, and mixed well. 2.5 μL of this mixture was added to the plated cells. The final DMSO concentration was 0.5% and the highest concentration of compound was 50 μM. Plates were incubated overnight (e.g., about 14 h, 18 h, or 24 h) in a 37° C. tissue culture incubator.
Day 3, Plates were removed from the incubator and allowed to equilibrate at rt for 30 minutes. Prolabel substrate (DiscoverX PathHunter Prolabel Detection Kit, User manual: 93-0180) was added as described by the manufacturers protocols. Plates were incubated at rt for three hours and luminescence was read using an Envision reader (Perkin Elmer) Data was analyzed and visualized using the Spotfire software package.

In experiment [3] the target is IKZF2 (Homo sapiens, UniProt Q96SW2+Q9UKS7). In words: Prolabel quantification of IKZF2 protein levels in 293GT cells.
Where [4] appears, read: 24 h, 10 μM, 24 h, 293GT cells; read-out: IKZF2 % protein reduction at 10 μM, 24 h.
[5] abbreviates: Prolabel assay, 293GT cells; read-out: IKZF2 EC50.
[6] abbreviates: 10 μM, 24 h, 293GT cells; read-out: IKZF2 % protein reduction at 10 μM, 24 h.

Sequence of GSPT1 (P15170 whole entry, the tested form may be a part): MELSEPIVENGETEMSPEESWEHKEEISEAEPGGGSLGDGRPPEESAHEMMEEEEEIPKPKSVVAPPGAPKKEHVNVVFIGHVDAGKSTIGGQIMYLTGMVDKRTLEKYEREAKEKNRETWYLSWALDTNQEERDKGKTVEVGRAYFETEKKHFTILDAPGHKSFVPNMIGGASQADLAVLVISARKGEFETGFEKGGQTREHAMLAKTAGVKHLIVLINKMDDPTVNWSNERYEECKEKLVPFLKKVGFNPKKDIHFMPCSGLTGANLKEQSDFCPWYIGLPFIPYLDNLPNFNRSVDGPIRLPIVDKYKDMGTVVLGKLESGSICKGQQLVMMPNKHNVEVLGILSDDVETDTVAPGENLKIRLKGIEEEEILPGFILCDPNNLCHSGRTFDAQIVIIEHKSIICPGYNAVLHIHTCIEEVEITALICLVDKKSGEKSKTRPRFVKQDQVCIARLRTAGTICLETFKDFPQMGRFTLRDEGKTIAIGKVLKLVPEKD
Sequence of GSPT1 (Q96SW2 whole entry, the tested form may be a part): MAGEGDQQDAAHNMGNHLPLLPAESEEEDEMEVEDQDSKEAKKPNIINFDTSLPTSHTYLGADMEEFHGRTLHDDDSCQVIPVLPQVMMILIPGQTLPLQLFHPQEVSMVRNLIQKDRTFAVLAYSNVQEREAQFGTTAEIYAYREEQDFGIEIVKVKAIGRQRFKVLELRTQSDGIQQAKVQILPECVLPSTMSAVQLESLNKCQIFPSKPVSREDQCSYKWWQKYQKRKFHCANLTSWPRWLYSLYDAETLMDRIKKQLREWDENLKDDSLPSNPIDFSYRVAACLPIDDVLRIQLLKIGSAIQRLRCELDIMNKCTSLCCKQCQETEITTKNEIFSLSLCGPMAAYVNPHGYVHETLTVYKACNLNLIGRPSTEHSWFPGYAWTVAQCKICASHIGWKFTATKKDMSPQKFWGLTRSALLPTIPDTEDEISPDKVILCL
Sequence of GSPT1 (Q16531 whole entry partner, the tested form may be a part): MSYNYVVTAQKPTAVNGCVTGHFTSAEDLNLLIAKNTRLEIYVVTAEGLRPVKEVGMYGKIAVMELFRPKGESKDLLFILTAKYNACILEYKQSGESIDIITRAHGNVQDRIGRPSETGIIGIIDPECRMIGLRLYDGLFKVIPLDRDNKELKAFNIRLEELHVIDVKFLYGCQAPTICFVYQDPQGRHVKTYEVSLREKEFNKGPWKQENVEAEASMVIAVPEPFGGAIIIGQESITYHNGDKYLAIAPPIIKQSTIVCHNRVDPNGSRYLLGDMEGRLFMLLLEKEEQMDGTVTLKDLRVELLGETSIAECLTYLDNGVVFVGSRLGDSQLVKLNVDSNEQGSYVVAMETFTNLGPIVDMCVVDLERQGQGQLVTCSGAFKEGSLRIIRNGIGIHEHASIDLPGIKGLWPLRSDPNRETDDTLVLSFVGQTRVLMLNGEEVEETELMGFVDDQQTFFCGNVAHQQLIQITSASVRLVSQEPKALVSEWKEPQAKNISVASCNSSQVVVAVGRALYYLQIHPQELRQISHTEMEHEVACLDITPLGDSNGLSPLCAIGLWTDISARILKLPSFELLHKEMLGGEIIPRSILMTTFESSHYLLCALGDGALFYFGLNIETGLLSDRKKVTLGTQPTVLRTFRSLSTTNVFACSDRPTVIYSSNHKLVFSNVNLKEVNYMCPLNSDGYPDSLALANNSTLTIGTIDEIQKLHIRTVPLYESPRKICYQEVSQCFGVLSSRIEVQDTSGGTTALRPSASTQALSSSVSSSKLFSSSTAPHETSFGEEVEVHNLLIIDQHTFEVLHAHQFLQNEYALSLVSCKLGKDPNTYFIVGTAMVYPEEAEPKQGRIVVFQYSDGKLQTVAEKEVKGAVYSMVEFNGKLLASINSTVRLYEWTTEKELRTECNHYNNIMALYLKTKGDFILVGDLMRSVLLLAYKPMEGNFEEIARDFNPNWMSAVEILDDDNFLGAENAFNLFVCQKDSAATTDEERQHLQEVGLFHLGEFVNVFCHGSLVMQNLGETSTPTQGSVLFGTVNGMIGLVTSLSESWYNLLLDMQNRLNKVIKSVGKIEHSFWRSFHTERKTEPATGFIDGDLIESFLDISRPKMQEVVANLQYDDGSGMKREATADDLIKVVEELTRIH
Sequence of IKZF1 (Q13422 whole entry, the tested form may be a part): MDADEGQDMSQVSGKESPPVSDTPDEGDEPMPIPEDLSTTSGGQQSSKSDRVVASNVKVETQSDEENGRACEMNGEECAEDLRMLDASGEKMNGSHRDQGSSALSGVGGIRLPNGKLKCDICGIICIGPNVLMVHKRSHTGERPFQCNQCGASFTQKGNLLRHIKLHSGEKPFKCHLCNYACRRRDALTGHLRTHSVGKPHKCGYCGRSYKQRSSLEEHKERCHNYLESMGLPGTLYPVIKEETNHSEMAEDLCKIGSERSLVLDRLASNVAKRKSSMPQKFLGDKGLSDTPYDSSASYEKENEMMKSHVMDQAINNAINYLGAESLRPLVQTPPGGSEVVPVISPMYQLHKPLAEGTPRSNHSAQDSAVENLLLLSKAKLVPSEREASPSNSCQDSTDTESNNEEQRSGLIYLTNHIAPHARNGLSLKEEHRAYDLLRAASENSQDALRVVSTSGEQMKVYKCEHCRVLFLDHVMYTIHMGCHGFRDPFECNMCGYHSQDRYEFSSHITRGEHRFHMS
Sequence of IKZF1 (Q96SW2 whole entry, the tested form may be a part): as the sequence (Q96SW2 whole entry, the tested form may be a part) above
Sequence of IKZF1 (Q16531 whole entry partner, the tested form may be a part): as the sequence (Q16531 whole entry partner, the tested form may be a part) above
Sequence of IKZF2 (Q9UKS7 whole entry): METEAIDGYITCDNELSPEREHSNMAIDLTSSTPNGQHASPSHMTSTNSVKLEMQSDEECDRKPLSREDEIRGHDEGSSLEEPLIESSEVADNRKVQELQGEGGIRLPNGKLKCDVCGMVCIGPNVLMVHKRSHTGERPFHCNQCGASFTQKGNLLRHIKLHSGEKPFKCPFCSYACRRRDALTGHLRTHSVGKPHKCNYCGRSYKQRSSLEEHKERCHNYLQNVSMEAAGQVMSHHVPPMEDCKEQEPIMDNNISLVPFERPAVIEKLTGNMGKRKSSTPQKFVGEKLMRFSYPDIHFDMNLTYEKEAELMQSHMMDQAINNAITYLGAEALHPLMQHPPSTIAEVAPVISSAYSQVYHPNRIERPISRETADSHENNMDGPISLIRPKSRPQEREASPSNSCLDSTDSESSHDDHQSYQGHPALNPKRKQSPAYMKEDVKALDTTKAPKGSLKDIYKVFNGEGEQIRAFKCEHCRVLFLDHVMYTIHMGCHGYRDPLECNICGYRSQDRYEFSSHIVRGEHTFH
Sequence of IKZF2 (Q96SW2 whole entry): as the sequence (Q96SW2 whole entry, the tested form may be a part) above
Sequence of IKZF2 (Q16531 whole entry partner): as the sequence (Q16531 whole entry partner, the tested form may be a part) above

Take `O=C1CCC(N2Cc3cc(C4CCN(Cc5ccc6nccnc6c5)CC4)ccc3C2=O)C(=O)N1` (stereo not drawn) [Compound I-239, 3-(1-oxo-5-(1-(quinoxalin-6-ylmethyl)piperidin-4-yl)isoindolin-2-yl)piperidine-2,6-dione]: the DC50 is greater than 30000 nM in experiment [1], greater than 30000 nM in experiment [2] and 7 nM in experiment [3] (setting [5]). The inhibition at 10 µM in experiment [3] (setting [4]) was 70%.

In the case of `O=C1CCC(N2Cc3cc(C4CCN(Cc5cnc(N6CCOCC6)nc5)CC4)ccc3C2=O)C(=O)N1` (stereo not drawn) [Compound I-147, 3-(5-(1-((2-morpholinopyrimidin-5-yl)methyl)piperidin-4-yl)-1-oxoisoindolin-2-yl)piperidine-2,6-dione], the DC50 in experiment [1] was greater than 30000 nM; in experiment [2] it was greater than 30000 nM; in experiment [3] (setting [5]), 25 nM. Also, the inhibition at 10 µM in experiment [3] (setting [4]) worked out at 75%. Further, the “IKZF2 protein levels as compared to the control (DMSO)” value in experiment [3] (Prolabel assay in HEK293GT cells, bar graph) was “decreased”.

Consider `NC(=O)c1cccc(CN2CCC(c3ccc4c(c3)CN(C3CCC(=O)NC3=O)C4=O)CC2)c1` (stereo not drawn) [Compound I-139, 3-((4-(2-(2,6-dioxopiperidin-3-yl)-1-oxoisoindolin-5-yl)piperidin-1-yl)methyl)benzamide], for which the DC50 in experiment [1] was greater than 30000 nM; in experiment [2] it was greater than 30000 nM; in experiment [3] (setting [5]) it was 81 nM. Further, in experiment [3] (setting [4]), the inhibition at 10 µM is 70%.

Turning to `CC(c1ccccc1)N1CCC(c2ccc3c(c2)CN(C2CCC(=O)NC2=O)C3=O)CC1` (racemic) [Compound I-62, 3-(1-oxo-5-(1-(1-phenylethyl)piperidin-4-yl)isoindolin-2-yl)piperidine-2,6-dione], the DC50 in experiment [1] is greater than 50000 nM; in experiment [2], greater than 30000 nM; in experiment [3] (setting [5]), 7 nM. In addition, in experiment [3] (setting [4]), the inhibition at 10 µM came to 75%.

For the compound `C[C@H]1CC(c2ccc3c(c2)CN(C2CCC(=O)NC2=O)C3=O)CCN1Cc1ccccc1` (stereo partly drawn) [Compound I-160, 3-(5-((2S)-1-benzyl-2-methylpiperidin-4-yl)-1-oxoisoindolin-2-yl)piperidine-2,6-dione], the results for the DC50 in experiment [1], in experiment [2] and in experiment [3] (setting [5]) were greater than 50000 nM, greater than 50000 nM and 18 nM, respectively. The inhibition at 10 µM in experiment [3] (setting [4]) is 50%.

For `O=C1CCC(N2Cc3cc(C4CCN(Cc5ccc(-c6ccccc6)cc5)CC4)ccc3C2=O)C(=O)N1` (stereo not drawn) [Compound I-90, 3-(5-(1-([1,1′-biphenyl]-4-ylmethyl)piperidin-4-yl)-1-oxoisoindolin-2-yl)piperidine-2,6-dione], the DC50 in experiment [1] is greater than 50000 nM; in experiment [2], greater than 50000 nM; in experiment [3] (setting [5]) it was 7 nM. Besides, in experiment [3] (setting [6]), the inhibition at 10 µM came to 65%.

For the compound `CC(C)(C)c1cccc(CN2CCC(c3ccc4c(c3)CN(C3CCC(=O)NC3=O)C4=O)CC2)c1` (stereo not drawn) [Compound I-107, 3-(5-(1-(3-(tert-butyl)benzyl)piperidin-4-yl)-1-oxoisoindolin-2-yl)piperidine-2,6-dione], the DC50 was 140 nM in experiment [1], greater than 30000 nM in experiment [2] and 23 nM in experiment [3] (setting [5]). Moreover, in experiment [3] (setting [4]), the inhibition at 10 µM was found to be 80%.

Take `O=C1CCC(N2Cc3cc(C4CCN(Cc5cn(C6CCC6)nn5)CC4)ccc3C2=O)C(=O)N1` (stereo not drawn) [Compound I-134, 3-(5-(1-((1-cyclobutyl-1H-1,2,3-triazol-4-yl)methyl)piperidin-4-yl)-1-oxoisoindolin-2-yl)piperidine-2,6-dione]: the DC50 in experiment [1] is greater than 30000 nM; in experiment [2], greater than 30000 nM; in experiment [3] (setting [5]), 34 nM. In addition, the inhibition at 10 µM in experiment [3] (setting [4]) is 80%.

For `N#Cc1ccc(CN2CCC(c3ccc4c(c3)CN(C3CCC(=O)NC3=O)C4=O)CC2)cc1` (stereo not drawn) [Compound I-31, 3-(5-(1-(4-nitrilebenzyl)piperidin-4-yl)-1-oxoisoindolin-2-yl)piperidine-2,6-dione], the DC50 in experiment [1] is greater than 50000 nM; in experiment [2], greater than 50000 nM; in experiment [3] (setting [5]), 4 nM. Moreover, in experiment [3] (setting [6]), the inhibition at 10 µM is 60%.

Regarding `Cc1nc2sccn2c1CN1CCC(c2ccc3c(c2)CN(C2CCC(=O)NC2=O)C3=O)CC1` (stereo not drawn) [Compound I-125, 3-(5-(1-((6-methylimidazo[2,1-b]thiazol-5-yl)methyl)piperidin-4-yl)-1-oxoisoindolin-2-yl)piperidine-2,6-dione], the results for the DC50 in experiment [1], in experiment [2] and in experiment [3] (setting [5]) were greater than 30000 nM, greater than 30000 nM and 240 nM, respectively. The inhibition at 10 µM in experiment [3] (setting [4]) stood at 60%.

On to `O=C1CCC(N2Cc3cc(C4CCN(Cc5nc(-c6ccccc6)c[nH]5)CC4)ccc3C2=O)C(=O)N1` (stereo not drawn) [Compound I-154, 3-(1-oxo-5-(1-((4-phenyl-1H-imidazol-2-yl)methyl)piperidin-4-yl)isoindolin-2-yl)piperidine-2,6-dione], for which the DC50 in experiment [1] was 43 nM; in experiment [2], greater than 30000 nM; in experiment [3] (setting [5]), 8 nM. The inhibition at 10 µM in experiment [3] (setting [4]) amounted to 85%.

As for `NC(=O)c1ccc(CN2CCC(c3ccc4c(c3)CN(C3CCC(=O)NC3=O)C4=O)CC2)cc1` (stereo not drawn) [Compound I-71, 4-((4-(2-(2,6-dioxopiperidin-3-yl)-1-oxoisoindolin-5-yl)piperidin-1-yl)methyl)benzamide], the DC50 is greater than 30000 nM in experiment [1], greater than 30000 nM in experiment [2] and 27 nM in experiment [3] (setting [5]). The inhibition at 10 µM in experiment [3] (setting [4]) stood at 80%.

For `O=C1CCC(N2Cc3cc(C4CCN(Cc5ccc6ccc(F)cc6n5)CC4)ccc3C2=O)C(=O)N1` (stereo not drawn) [Compound I-232, 3-(5-(1-((7-fluoroquinolin-2-yl)methyl)piperidin-4-yl)-1-oxoisoindolin-2-yl)piperidine-2,6-dione], the results for the DC50 in experiment [1], in experiment [2] and in experiment [3] (setting [5]) were greater than 30000 nM, greater than 30000 nM and 18 nM, respectively. Also, in experiment [3] (setting [4]), the inhibition at 10 µM was determined as 70%.

As for `O=C1CCC(N2Cc3cc(C4CCN(Cc5ccc6c(c5)OCCCO6)CC4)ccc3C2=O)C(=O)N1` (stereo not drawn) [Compound I-88, 3-(5-(1-((3,4-dihydro-2H-benzo[b][1,4]dioxepin-7-yl)methyl)piperidin-4-yl)-1-oxoisoindolin-2-yl)piperidine-2,6-dione], the DC50 is greater than 30000 nM in experiment [1], greater than 30000 nM in experiment [2] and 5 nM in experiment [3] (setting [5]). Moreover, in experiment [3] (setting [4]), the inhibition at 10 µM came to 70%.

As to `O=C1CCC(N2Cc3cc(C4CCN(Cc5csc(-c6ccccc6)n5)CC4)ccc3C2=O)C(=O)N1` (stereo not drawn) [Compound I-211, 3-(1-oxo-5-(1-((2-phenylthiazol-4-yl)methyl)piperidin-4-yl)isoindolin-2-yl)piperidine-2,6-dione], the DC50 is 39 nM in experiment [1], greater than 30000 nM in experiment [2] and 24 nM in experiment [3] (setting [5]). The inhibition at 10 µM in experiment [3] (setting [4]) stood at 80%.

Turning to `CCC(C)(C)c1ccc(CN2CCC(c3ccc4c(c3)CN(C3CCC(=O)NC3=O)C4=O)CC2)cc1` (stereo not drawn) [Compound I-89, 3-(1-oxo-5-(1-(4-(tert-pentyl)benzyl)piperidin-4-yl)isoindolin-2-yl)piperidine-2,6-dione], the results for the DC50 in experiment [1], in experiment [2] and in experiment [3] (setting [5]) were greater than 30000 nM, greater than 30000 nM and 33 nM, respectively. Moreover, the inhibition at 10 µM in experiment [3] (setting [4]) was 70%.

Turning to `O=C1CCC(N2Cc3cc(C4CCN(Cc5cccn6nccc56)CC4)ccc3C2=O)C(=O)N1` (stereo not drawn) [Compound I-128, 3-(1-oxo-5-(1-(pyrazolo[1,5-a]pyridin-4-ylmethyl)piperidin-4-yl)isoindolin-2-yl)piperidine-2,6-dione], the values for the DC50 in experiment [1], in experiment [2] and in experiment [3] (setting [5]) were greater than 30000 nM, greater than 30000 nM and 12 nM, respectively. Besides, the inhibition at 10 µM in experiment [3] (setting [4]) is 75%.
